Experimental data from ChEMBL document CHEMBL4673334, “In Vivo Biological Evaluation of a Synthetic Royleanone Derivative as a Promising Fast-Acting Trypanocidal Agent by Inducing Mitochondrial-Dependent Necrosis” (J Nat Prod, 2020).
Activity calls are given as the source filed them. The calls are words filed in the database; no cut-off is given here.

Legend:
Trypanosoma cruzi [1] = assay: Inhibition of Trypanosoma cruzi MHOM/Pe/2011/Arequipa(DTU V) epimastigote form Fe-SOD at 25 uM by UV-VIS spectrophotometric method relative to control
Trypanosoma cruzi [2] = assay: Inhibition of Trypanosoma cruzi MHOM/Pe/2011/Arequipa(DTU V) epimastigote form Fe-SOD at 12.5 uM by UV-VIS spectrophotometric method relative to control
Trypanosoma cruzi [3] = assay: Antitrypanosomal activity against Trypanosoma cruzi MHOM/Pe/2011/Arequipa(DTU V) amastigote form infected in BALB/c mouse assessed as reduction in spleen enlargement at 20 mg/kg, po administered for 5 days starting at 9 days post infection and measured after 145 days post infection; type: functional, organism-based; conditions: time 5.0 day
Trypanosoma cruzi [4] = assay: Antitrypanosomal activity against Trypanosoma cruzi MHOM/Pe/2011/Arequipa(DTU V) amastigote form infected in BALB/c mouse assessed as reduction in parasite growth at 20 mg/kg, po administered for 5 days starting at 100 days post infection and measured up to 106 days post infection by ELISA assay; type: functional, organism-based; conditions: time 5.0 day
Trypanosoma cruzi [5] = assay: Antitrypanosomal activity against Trypanosoma cruzi MHOM/Pe/2011/Arequipa(DTU V) amastigote form infected in BALB/c mouse assessed as reduction in parasitaemia at 20 mg/kg, po for 5 days starting at 9 days post infection and measured after 7 days post infection relative to control; type: functional; design: scale not given: the % may be the effect or the level left; conditions: time 5 day
Trypanosoma cruzi [6] = assay: Antitrypanosomal activity against Trypanosoma cruzi MHOM/Pe/2011/Arequipa(DTU V) amastigote form infected in BALB/c mouse assessed as reduction in parasitaemia at 20 mg/kg, po for 5 days starting at 9 days post infection and measured after 13 to 35 days post infection; type: functional, organism-based; conditions: time 5.0 day

With `COC(=O)[C@]1(C)CCC[C@]2(C)C3=C(C=C[C@@H]12)C(=O)C(C(C)C)=CC3=O` the inhibition (Trypanosoma cruzi [1]) was 100%, the inhibition (Trypanosoma cruzi [2]) was 80% and the Activity (Trypanosoma cruzi [3]) was “Active”. The Activity (Trypanosoma cruzi [4]) was “Active”, the Activity (Trypanosoma cruzi [5]) was 65% and the Activity (Trypanosoma cruzi [6]) was “Active”.
